Measured values as given in publication PMC5429769, “Rational development of Stafib-2: a selective, nanomolar inhibitor of the transcription factor STAT5b” (Scientific Reports, 2017).
Residue numbers refer to the chain shown, from its start.

Tests used:
STAT5b-GFP = target: T1, STAT5b-GFP (Homo sapiens, UniProt P51692); test: STAT5b Tyr699 phosphorylation in STAT5b-GFP-transfected K562 cells (Western blot); assay type: cell-based
T1 sequence (P51692 1-787): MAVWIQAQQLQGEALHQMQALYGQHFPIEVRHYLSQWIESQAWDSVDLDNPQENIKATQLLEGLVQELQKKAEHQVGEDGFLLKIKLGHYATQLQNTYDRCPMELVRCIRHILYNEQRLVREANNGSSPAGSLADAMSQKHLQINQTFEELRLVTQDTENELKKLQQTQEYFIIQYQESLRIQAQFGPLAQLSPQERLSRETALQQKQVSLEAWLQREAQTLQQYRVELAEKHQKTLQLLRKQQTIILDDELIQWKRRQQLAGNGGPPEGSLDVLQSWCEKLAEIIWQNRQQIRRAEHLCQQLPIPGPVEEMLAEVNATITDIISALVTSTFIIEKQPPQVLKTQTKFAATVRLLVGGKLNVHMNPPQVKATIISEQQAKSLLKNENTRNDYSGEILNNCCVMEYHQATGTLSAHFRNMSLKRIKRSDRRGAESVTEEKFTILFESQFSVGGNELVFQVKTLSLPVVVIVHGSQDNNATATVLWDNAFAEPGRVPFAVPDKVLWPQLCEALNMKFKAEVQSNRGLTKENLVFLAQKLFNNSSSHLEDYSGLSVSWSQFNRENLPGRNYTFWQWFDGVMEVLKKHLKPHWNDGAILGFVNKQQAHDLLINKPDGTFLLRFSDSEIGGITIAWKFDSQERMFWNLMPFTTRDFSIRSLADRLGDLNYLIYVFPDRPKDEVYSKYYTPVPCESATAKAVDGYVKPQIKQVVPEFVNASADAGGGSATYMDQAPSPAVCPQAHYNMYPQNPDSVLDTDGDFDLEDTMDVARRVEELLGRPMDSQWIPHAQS

[1] = target: T2, STAT5b Phe633Ala, Tyr665Ala (Homo sapiens, UniProt P51692, F633A/Y665A); test: Isothermal titration calorimetry, STAT5b Phe633Ala, Tyr665Ala double mutant; assay type: binding; settings: ITC, 25 °C, n = 3
T2 sequence (P51692 1-787 F633A/Y665A): T1 sequence (P51692 1-787) with F633A, Y665A

Lck SH2 = target: T3, Lck SH2 (Homo sapiens, UniProt P06239); test: Fluorescence polarization assay, Lck SH2; assay type: binding; settings: read-out: Lck SH2 maximum inhibition
T3 construct: the more distantly related SH2 domain of the tyrosine kinase Lck

STAT4 = target: T4, STAT4 (Homo sapiens, UniProt Q14765); test: Fluorescence polarization assay, STAT4; assay type: binding
T4 sequence (Q14765 1-748): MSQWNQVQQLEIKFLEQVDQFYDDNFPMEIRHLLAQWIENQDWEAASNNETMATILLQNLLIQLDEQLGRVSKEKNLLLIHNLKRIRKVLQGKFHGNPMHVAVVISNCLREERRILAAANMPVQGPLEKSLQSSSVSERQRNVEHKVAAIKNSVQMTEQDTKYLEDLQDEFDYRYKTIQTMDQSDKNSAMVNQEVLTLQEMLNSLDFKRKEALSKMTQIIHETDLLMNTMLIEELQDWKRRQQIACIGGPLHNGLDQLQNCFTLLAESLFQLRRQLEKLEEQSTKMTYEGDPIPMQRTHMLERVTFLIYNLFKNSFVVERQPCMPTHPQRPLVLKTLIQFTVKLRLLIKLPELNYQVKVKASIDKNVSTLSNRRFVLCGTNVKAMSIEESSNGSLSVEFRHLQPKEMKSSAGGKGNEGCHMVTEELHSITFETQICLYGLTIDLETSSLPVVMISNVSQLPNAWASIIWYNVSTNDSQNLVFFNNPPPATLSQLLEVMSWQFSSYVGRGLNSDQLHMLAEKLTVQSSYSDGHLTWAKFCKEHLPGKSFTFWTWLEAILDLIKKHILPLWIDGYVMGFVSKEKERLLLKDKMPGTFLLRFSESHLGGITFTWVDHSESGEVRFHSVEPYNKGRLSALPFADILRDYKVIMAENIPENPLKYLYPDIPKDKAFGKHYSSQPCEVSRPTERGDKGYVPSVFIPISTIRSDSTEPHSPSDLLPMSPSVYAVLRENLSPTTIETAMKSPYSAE

T3 sequence (P06239 127-224 limits assumed): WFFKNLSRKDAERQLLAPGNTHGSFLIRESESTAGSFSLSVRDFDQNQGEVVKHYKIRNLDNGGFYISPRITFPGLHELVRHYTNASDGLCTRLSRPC

## O=C(COc1ccc(C(=O)Nc2ccc(Oc3ccccc3)cc2)cc1)NCc1ccc(OP(=O)(O)O)c(OP(=O)(O)O)c1 [compound 4, 4-((2-(4-((4-phenoxyphenyl)carbamoyl)phenoxy)acetamido)methyl)-1,2-phenylene bis(dihydrogen phosphate)]
STAT5b-GFP
  inhibition of STAT5b phosphorylation: did not show significant activity
[1]
  Kd: 3.8 ± 1.7 µM
  ΔH: -5.1 ± 0.5 kcal/mol
  −TΔS: -2.4 ± 0.3 kcal/mol
Lck SH2
  inhibition at 40 µM: 25 ± 2%
STAT4
  IC50: 9.1 ± 0.3 µM
